Results: ChEMBL document CHEMBL6071150, “From lab to clinic: The discovery and optimization journey of PI3K inhibitors” (Eur J Med Chem, 2024)

What was measured:
[1] = test system: MCF7; assay: cells; conditions: Homo sapiens, MCF7, 96 h
[2] = target: Phosphatidylinositol 4,5-bisphosphate 3-kinase catalytic subunit alpha isoform (Homo sapiens, UniProt P42336); assay: Inhibition of GST-tagged human recombinant PI3K-p110alpha extracted from baculovirus-infected Sf9 insect cells incubated for 1 hr by microbeta counter analysis
Chain of Phosphatidylinositol 4,5-bisphosphate 3-kinase catalytic subunit alpha isoform (P42336 whole entry, canonical isoform): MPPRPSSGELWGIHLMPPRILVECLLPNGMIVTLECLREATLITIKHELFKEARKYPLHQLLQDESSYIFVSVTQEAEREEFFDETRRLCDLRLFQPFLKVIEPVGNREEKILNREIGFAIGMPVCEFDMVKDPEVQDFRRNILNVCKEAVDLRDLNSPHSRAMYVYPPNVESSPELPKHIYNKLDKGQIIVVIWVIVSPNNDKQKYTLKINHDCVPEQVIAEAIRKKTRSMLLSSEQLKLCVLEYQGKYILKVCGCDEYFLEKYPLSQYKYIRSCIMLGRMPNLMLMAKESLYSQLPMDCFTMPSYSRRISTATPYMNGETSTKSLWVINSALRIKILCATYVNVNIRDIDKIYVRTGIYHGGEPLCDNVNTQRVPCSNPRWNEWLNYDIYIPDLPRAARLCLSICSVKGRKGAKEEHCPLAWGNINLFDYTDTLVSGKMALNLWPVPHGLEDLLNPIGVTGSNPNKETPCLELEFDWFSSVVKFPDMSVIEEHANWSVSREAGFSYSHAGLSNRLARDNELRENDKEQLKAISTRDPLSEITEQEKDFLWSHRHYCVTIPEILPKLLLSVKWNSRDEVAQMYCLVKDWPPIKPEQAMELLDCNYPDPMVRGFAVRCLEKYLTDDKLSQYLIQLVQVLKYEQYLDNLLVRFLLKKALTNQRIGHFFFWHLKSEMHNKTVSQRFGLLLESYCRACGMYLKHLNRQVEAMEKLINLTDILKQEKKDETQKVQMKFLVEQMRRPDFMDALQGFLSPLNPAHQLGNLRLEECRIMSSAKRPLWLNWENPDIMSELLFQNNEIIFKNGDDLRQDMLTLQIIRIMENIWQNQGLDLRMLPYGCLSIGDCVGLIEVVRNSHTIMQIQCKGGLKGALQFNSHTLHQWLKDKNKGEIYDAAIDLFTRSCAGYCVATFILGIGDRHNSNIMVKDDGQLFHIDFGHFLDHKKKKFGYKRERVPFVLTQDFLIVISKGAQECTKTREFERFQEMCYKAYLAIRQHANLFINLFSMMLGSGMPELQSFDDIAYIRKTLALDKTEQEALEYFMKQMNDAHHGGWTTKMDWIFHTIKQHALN

[3] = Clearance in rat liver microsomes; type: ADME, Microsome
[4] = target: CYP450 (Homo sapiens, UniProt P04798+P05177+P05181+P08684+P10632+P10635+P11509+P11712+P13584+P20813+P20815+P20853+P24462+P24903+P33260+P33261+P51589+P78329+P98187+Q02928+Q08477+Q16678+Q16696+Q5TCH4+Q6VVX0+Q7Z449+Q8TAV3+Q96SQ9+Q9HB55); assay: Inhibition of CYP450 (unknown origin); type: ADME, protein assay
[5] = Clearance in mouse at 1 mg/kg, iv; type: ADME, organism-based; conditions: in vivo
[6] = Volume of distribution at steady state in mouse at 1 mg/kg, iv; type: ADME, organism-based; conditions: in vivo, read-out: Vdss
[7] = Cmax in mouse plasma at 5 mg/kg, po; type: ADME, organism-based
[8] = Cmax in mouse plasma at 50 mg/kg, po; type: ADME, organism-based
[9] = AUC in mouse plasma at 5 mg/kg, po; type: ADME, organism-based; conditions: in vivo
[10] = AUC in mouse plasma at 50 mg/kg, po; type: ADME, organism-based; conditions: in vivo
[11] = Oral bioavailability in mouse plasma at 5 mg/kg by LC-MS/MS analysis; type: ADME, organism-based
[12] = Oral bioavailability in mouse plasma at 50 mg/kg by LC-MS/MS analysis; type: ADME, organism-based
[13] = Plasma protein binding in mouse; type: ADME, cell-free; conditions: read-out: PPB (converted)
[14] = Cmax in mouse at 1 mg/kg, iv; type: ADME, organism-based; conditions: in vivo
[15] = Cmax in rat at 3.4 mg/kg, po; type: ADME, organism-based; conditions: in vivo
[16] = Oral bioavailability in human; type: ADME, organism-based; conditions: in vivo
[17] = Intrinsic clearance in rat liver microsomes; type: ADME, Microsome; conditions: read-out: CLH (converted)
[18] = Half life in monkey; type: ADME, Macaca mulatta; conditions: rhesus monkey, in vivo
[19] = Metabolic stability in mouse liver microsomes assessed as half life; type: ADME, Microsome
[20] = target: Cytochrome P450 3A4 (Homo sapiens, UniProt P08684); assay: Inhibition of CYP3A4 (unknown origin); type: ADME
Chain of Cytochrome P450 3A4 (P08684 whole entry): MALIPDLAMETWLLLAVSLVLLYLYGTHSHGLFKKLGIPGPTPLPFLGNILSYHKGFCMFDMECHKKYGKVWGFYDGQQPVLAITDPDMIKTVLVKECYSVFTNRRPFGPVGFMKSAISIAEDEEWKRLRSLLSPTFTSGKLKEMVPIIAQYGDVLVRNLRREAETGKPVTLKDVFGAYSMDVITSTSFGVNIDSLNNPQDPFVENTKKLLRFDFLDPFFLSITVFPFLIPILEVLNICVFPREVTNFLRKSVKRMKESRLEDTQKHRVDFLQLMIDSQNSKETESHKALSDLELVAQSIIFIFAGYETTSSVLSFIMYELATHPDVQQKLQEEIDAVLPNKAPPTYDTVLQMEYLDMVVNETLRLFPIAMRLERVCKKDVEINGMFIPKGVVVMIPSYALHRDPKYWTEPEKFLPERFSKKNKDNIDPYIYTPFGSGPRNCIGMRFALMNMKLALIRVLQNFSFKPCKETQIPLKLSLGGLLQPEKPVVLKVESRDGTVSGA

[21] = Oral bioavailability in mouse; type: ADME, organism-based; conditions: in vivo
[22] = Oral bioavailability in Dog; type: ADME, organism-based, Canis lupus familiaris; conditions: in vivo
[23] = Oral bioavailability in mouse at 1 mg/kg; type: ADME, organism-based; conditions: in vivo
[24] = Oral bioavailability in rat at 1 mg/kg; type: ADME, organism-based; conditions: in vivo
[25] = Cmax in SCID mouse at 3 mg/kg, iv measured upto 24 hrs by LC/MS-MS analysis; type: ADME, organism-based; conditions: in vivo
[26] = AUC (0 to t) in SCID mouse at 3 mg/kg, iv; type: ADME, organism-based; conditions: in vivo
[27] = Volume of distribution at steady state in mouse at 3 mg/kg, iv; type: ADME, organism-based; conditions: in vivo
[28] = Oral bioavailability in mouse at 3 mg/kg by LC-MS/MS analysis; type: ADME, organism-based; conditions: in vivo
[29] = Oral bioavailability in rat at 3 mg/kg by LC-MS/MS analysis; type: ADME, organism-based; conditions: in vivo
[30] = Oral bioavailability in Beagle dog at 3 mg/kg by LC-MS/MS analysis; type: ADME, organism-based, Canis lupus familiaris; conditions: in vivo
[31] = Half life in SCID mouse at 3 mg/kg, po; type: ADME, organism-based; conditions: in vivo

Question: Which IC50 [1] does the source give for Cc1c(CN2CCN(C(=O)[C@@H](C)O)CC2)sc2c(N3CCOCC3)nc(-c3cnc(N)nc3)nc12 here?
Answer: 0.356 µM

Question: What does the source list for Cc1nc(NC(=O)N2CCC[C@H]2C(N)=O)sc1-c1ccnc(Nc2ccccc2C(C)(C)C)n1?
Answer: IC50 [2]: 0.0075 µM; CLH [3]: 62 µL/min/µg; IC50 [4]: > 10 µM

Question: For C[C@H](NC(=O)c1c(N)ccc2cccnc12)c1cc2cccc(Cl)c2c(=O)n1-c1ccccc1, which clearance [5] is on record?
Answer: 0.552 L/h/kg

Question: And the Vd [6]?
Answer: 1.7 L/kg

Question: What about the Cmax [7] of the same compound?
Answer: 2 µM

Question: What about the Cmax [8] of the same compound?
Answer: 24 µM

Question: And the AUC [9]?
Answer: 10 µM·h

Question: What about the AUC [10] of the same compound?
Answer: 121 µM·h

Question: And the bioavailability [11]?
Answer: 56%

Question: What about the bioavailability [12] of the same compound?
Answer: 66%

Question: What about the fraction unbound [13] of the same compound?
Answer: 0.29

Question: Which CLH [3] does the source give for Cc1nc(NC(=O)N2CCC[C@H]2C(N)=O)sc1-c1ccnc(C(C)(C)C(F)(F)F)c1 [ALPELISIB] here?
Answer: 29 µL/min/µg

Question: What about the Cmax [14] of the same compound?
Answer: 0.52 µM

Question: What about the Cmax [15] of the same compound?
Answer: 0.19 µM

Question: What does the source list for C[C@H](Nc1ncnc2[nH]cnc12)c1cc2ccc(F)cc2nc1-c1ccccn1 [AMG-319]?
Answer: bioavailability [16]: 54%; CLint scaled [17]: 0.34 L/h/kg

Question: With Cc1c(CN2CCN(C(=O)[C@H](C)O)CC2)sc2c(N3CCOCC3)nc(-c3cnc(N)nc3)nc12 [APITOLISIB] as the compound, how does the IC50 [1] read?
Answer: 0.255 µM

Question: Which half-life [18] does the source give for C[C@H](NC(=O)c1c(N)nn2cccnc12)c1cc2cccc(C#Cc3cnn(C)c3)c2c(=O)n1-c1ccccc1 [EGANELISIB] here?
Answer: 4.3 h

Question: And the half-life [19]?
Answer: > 6 h

Question: What about the IC50 [20] of the same compound?
Answer: > 20 µM

Question: For COc1ncc(-c2ccc3nccc(-c4ccnnc4)c3c2)cc1NS(=O)(=O)c1ccc(F)cc1F [OMIPALISIB], which bioavailability [21] is on record?
Answer: 100%

Question: What about the bioavailability [22] of the same compound?
Answer: 80%

Question: What does the source list for CC1(C)OCCn2c1nc1c(N3CCOCC3)nc(-c3cnc(N)nc3)nc12 [PAXALISIB]?
Answer: bioavailability [23]: 75%; bioavailability [24]: 77%

Question: For C[C@H]1Cc2ccccc2N1C(=O)Cc1nc(N2CCOCC2)cc(=O)[nH]1 [SAR-260301], which Cmax [25] is on record?
Answer: 1.87 µg/mL

Question: And the AUCt [26]?
Answer: 600 h/ng/mL

Question: And the Vdss [27]?
Answer: 1 L/kg

Question: And the bioavailability [28]?
Answer: 30%

Question: And the bioavailability [29]?
Answer: 70%

Question: And the bioavailability [30]?
Answer: 67%

Question: And the half-life [31]?
Answer: 1.4 h
